Assay [1] concerns the target T1, Adenosine receptor A2a (Rattus norvegicus, UniProt P30543).
Description: Binding ability of adenosine A2a receptor by using [3H]-CGS- as radioligand in rat striatal homogenate
Another assay deals with T2, Adenosine receptor A1 (Rattus norvegicus, UniProt P25099).
T2 sequence (P25099 whole entry): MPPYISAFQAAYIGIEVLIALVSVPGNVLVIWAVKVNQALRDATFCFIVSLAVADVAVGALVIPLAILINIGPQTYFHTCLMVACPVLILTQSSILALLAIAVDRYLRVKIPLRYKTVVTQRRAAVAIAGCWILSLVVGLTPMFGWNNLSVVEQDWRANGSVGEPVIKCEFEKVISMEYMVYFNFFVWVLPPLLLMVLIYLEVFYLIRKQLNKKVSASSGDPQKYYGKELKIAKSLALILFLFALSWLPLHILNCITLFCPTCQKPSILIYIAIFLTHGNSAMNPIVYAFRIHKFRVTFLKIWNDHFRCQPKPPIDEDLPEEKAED
As to the kind of experiment: biochemical.

For assay [2], the target named is T1, Adenosine receptor A2a. Description: Displacement of [3H]-CGS- from Adenosine A2a receptor of rat striatal homogenate. Background: In a radioligand displacement assay an active substance lowers the binding of a labelled ligand.

Broadly, the Ki is a measure of affinity in units of concentration, obtained from inhibition or displacement. A low value points to tighter binding.

T1 sequence (P30543 whole entry): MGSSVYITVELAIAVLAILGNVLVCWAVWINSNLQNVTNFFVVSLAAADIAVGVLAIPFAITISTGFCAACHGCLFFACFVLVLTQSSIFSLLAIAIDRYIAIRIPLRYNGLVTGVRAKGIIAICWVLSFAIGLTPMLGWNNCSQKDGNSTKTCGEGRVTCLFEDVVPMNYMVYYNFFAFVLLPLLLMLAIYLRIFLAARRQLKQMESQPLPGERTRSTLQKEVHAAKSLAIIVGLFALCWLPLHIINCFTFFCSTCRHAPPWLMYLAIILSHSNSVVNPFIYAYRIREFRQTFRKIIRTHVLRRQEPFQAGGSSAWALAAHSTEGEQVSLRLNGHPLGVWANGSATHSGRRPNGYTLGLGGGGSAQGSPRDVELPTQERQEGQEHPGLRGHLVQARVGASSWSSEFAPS
Description for Adenosine receptor A1: Binding ability of adenosine A1 receptor by using [3H]CHA as radioligand in rat whole brain homogenate

As for `Nc1nc2nn(CCc3ccccc3)cc2c2nc(-c3ccco3)nn12`, the Ki was determined as 1.4 nM at Adenosine receptor A2a [1] and 4.7 nM at Adenosine receptor A1.
On to `CCCCn1cc2c(nc(N)n3nc(-c4ccco4)nc23)n1`, for which the values for the Ki at Adenosine receptor A2a [1] and at Adenosine receptor A1 were 2.4 nM and 30.4 nM, respectively.
As for `CCCCn1ncc2c1nc(N)n1nc(-c3ccco3)nc21`, the results for the Ki on Adenosine receptor A2a [1] and at Adenosine receptor A1 were 8.9 nM and 236 nM, respectively.
Regarding `Cn1ncc2c1nc(N)n1nc(-c3ccco3)nc21`, the Ki came to 101 nM on Adenosine receptor A2a [1] and 651 nM on Adenosine receptor A1.
Turning to `Nc1nc2nn(Cc3ccc(F)cc3)cc2c2nc(-c3ccco3)nn12`, the Ki at Adenosine receptor A2a [1] amounted to 1.2 nM; on Adenosine receptor A1, 3.3 nM.
The molecule `CC(C)CCn1cc2c(nc(N)n3nc(-c4ccco4)nc23)n1` returned a Ki on Adenosine receptor A1 of 5.6 nM.
In the case of `Nc1nc2nn(Cc3ccc(F)cc3)nc2c2nc(-c3ccco3)nn12`, the figures for the Ki on Adenosine receptor A2a [1] and at Adenosine receptor A1 were 2.5 nM and 18.3 nM, respectively.
On to `Nc1nc2c(nnn2Cc2ccccc2)c2nc(-c3ccco3)nn12`, for which the Ki was determined as 4.6 nM at Adenosine receptor A2a [1] and 6.1 nM on Adenosine receptor A1.
For the molecule `Nc1nc2c(nnn2Cc2ccc(F)cc2)c2nc(-c3ccco3)nn12`, the Ki on Adenosine receptor A2a [1] came to 13.7 nM; on Adenosine receptor A1 it was 61.2 nM.
Take `Nc1nc2c(nnn2Cc2cccc(F)c2)c2nc(-c3ccco3)nn12`: the Ki was 4.9 nM on Adenosine receptor A2a [1] and 19 nM at Adenosine receptor A1.
Take `Nc1nc2c(nnn2CCc2ccccc2)c2nc(-c3ccco3)nn12`: the Ki on Adenosine receptor A2a [1] turned out to be 6.9 nM; at Adenosine receptor A1 it was 42.4 nM.
On the same counts, the results for `Nc1nc2c(nnn2Cc2ccccc2F)c2nc(-c3ccco3)nn12` are 10.4 nM and 13.7 nM.
On the same counts, the results for `CC(C)CCn1ncc2c1nc(N)n1nc(-c3ccco3)nc21` are 12 nM and 116 nM.
As for `Nc1nc2ccc(Cl)cc2c2nc(-c3ccco3)nn12` [CGS-15943], the Ki on Adenosine receptor A2a [2] worked out at 1.2 nM.
